Results as given in patent publication US20070128217A1 (priority 2003, published 2007).

Key:
[1] = test system: rabbit serum obtained by immunizing a rabbit with the SARS-CoV strain Frankfurt 1; assay type: binding; design: Binding of a rabbit serum to linear peptides / Binding of a rabbit serum to looped peptides / Rabbit serum linear peptides / Rabbit serum looped peptides / Binding of a rabbit serum to linear peptides of protein N of SARS-CoV Urbani (Rabbit serum linear peptides) / Binding of a rabbit serum to looped/cyclic peptides of protein N of SARS-CoV Urbani (Rabbit serum looped peptides): unit not given here
[2] = test system: antibodies in sera from SARS patients (sera 1a, 1b, 2, 6, 37, 62, London, SARS-yellow, SARS-green); assay type: binding, human; design: Binding of serum 6 to linear peptides of protein X1 of SARS-CoV Urbani / Binding of serum 37 to linear peptides of protein X1 of SARS-CoV Urbani / Binding of serum 6 to looped/cyclic peptide (PEPSCAN-ELISA) / Binding of serum 37 to looped/cyclic peptide (PEPSCAN-ELISA) / Binding of serum 37 to looped/cyclic peptides of protein X1 of SARS-CoV Urbani / Binding of serum 6 to linear peptides of protein X2 / Binding of serum 37 to linear peptides of protein X2 / Binding of serum 37 to looped/cyclic peptides of protein X2 of SARS-CoV Urbani / Binding of serum 6 to linear peptides of protein M of SARS-CoV Urbani / Binding of serum 37 to linear peptides of protein M of SARS-CoV Urbani / Binding of serum 6 to looped/cyclic peptides of protein M of SARS-CoV Urbani / Binding of serum 37 to looped/cyclic peptides of protein M of SARS-CoV Urbani / Binding of serum 6 to linear peptides of protein X3 of SARS-CoV Urbani / Binding of serum 37 to linear peptides of protein X3 of SARS-CoV Urbani / Binding of serum 37 to looped/cyclic peptides of protein X3 of SARS-CoV Urbani / Binding of serum 6 to linear peptides of protein X4 of SARS-CoV Urbani / Binding of serum 37 to linear peptides of protein X4 of SARS-CoV Urbani / Binding of serum 37 to looped/cyclic peptides of protein X4 of SARS-CoV Urbani / Binding of serum 6 to linear peptides of protein X5 of SARS-CoV Urbani / Binding of serum 37 to linear peptides of protein X5 of SARS-CoV Urbani / Binding of serum 37 to looped/cyclic peptides of protein X5 of SARS-CoV Urbani / Binding of serum 6 to linear peptides of protein N of SARS-CoV Urbani / Binding of serum 37 to linear peptides of protein N of SARS-CoV Urbani / Binding of serum 6 to linear peptide (PEPSCAN-ELISA) / Binding of serum 1a to looped/cyclic peptides of protein N of SARS-CoV Urbani / Binding of serum 1b to looped/cyclic peptides of protein N of SARS-CoV Urbani / Binding of serum 2 to looped/cyclic peptides of protein N of SARS-CoV Urbani / Binding of serum 6 to looped/cyclic peptides of protein N of SARS-CoV Urbani / Binding of serum 37 to looped/cyclic peptides of protein N of SARS-CoV Urbani / Binding of serum 62 to looped/cyclic peptides of protein N of SARS-CoV Urbani / Binding of serum London to looped/cyclic peptides of protein N of SARS-CoV Urbani / Binding of serum SARS-green to looped/cyclic peptides of protein N of SARS-CoV Urbani: unit not given here
[3] = test system: control sera (pooled serum of ten healthy LUMC hospital workers; commercial negative donor pooled serum from the Dutch bloodbank); assay type: binding, human; design: Binding of Control serum LUMC to linear peptides / Binding of Control serum Blood-bank to linear peptides / Binding of Control serum LUMC to looped peptides / Binding of Control Serum Blood-Bank to Looped peptides / Binding of Control serum LUMC to linear peptides of the protein M of SARS-CoV Urbani / Binding of Control serum Blood-bank to linear peptides of the protein M of SARS-CoV Urbani / Binding of Control serum LUMC to looped peptides of the protein M of SARS-CoV Urbani / Binding of Control Serum Blood-Bank to Looped peptides of the protein M of SARS-CoV Urbani: unit not given here
[4] = test system: recombinant human anti-SARS-CoV antibody 03-018; assay type: binding; design: Binding of antibody 03-018 to linear peptides of the N protein of SARS-CoV Urbani / Binding of antibody 03-018 to looped/cyclic peptides of the N protein of SARS-CoV Urbani: unit not given here

| Sequence | Binding of a rabbit serum to linear peptides of protein N of SARS-CoV Urbani (Rabbit serum linear peptides) [1] | Binding of a rabbit serum to looped/cyclic peptides of protein N of SARS-CoV Urbani (Rabbit serum looped peptides) [1] | Binding of serum 1a to linear peptides of protein N of SARS-CoV Urbani [2] | Binding of serum 1a to looped/cyclic peptides of protein N of SARS-CoV Urbani [2] | Binding of serum 1b to linear peptides of protein N of SARS-CoV Urbani [2] | Binding of serum 1b to looped/cyclic peptides of protein N of SARS-CoV Urbani [2] | Binding of serum 2 to linear peptides of protein N of SARS-CoV Urbani [2] | Binding of serum 2 to looped/cyclic peptides of protein N of SARS-CoV Urbani [2] | Binding of serum 6 to linear peptides of protein N of SARS-CoV Urbani [2] | Binding of serum 6 to looped/cyclic peptides of protein N of SARS-CoV Urbani [2] | Binding of serum 37 to linear peptides of protein N of SARS-CoV Urbani [2] | Binding of serum 37 to looped/cyclic peptides of protein N of SARS-CoV Urbani [2] | Binding of serum 62 to linear peptides of protein N of SARS-CoV Urbani [2] | Binding of serum 62 to looped/cyclic peptides of protein N of SARS-CoV Urbani [2] | Binding of serum London to linear peptides of protein N of SARS-CoV Urbani [2] | Binding of serum London to looped/cyclic peptides of protein N of SARS-CoV Urbani [2] | Binding of serum SARS-green to looped/cyclic peptides of protein N of SARS-CoV Urbani [2] | Binding of serum SARS-yellow to looped/cyclic peptides of protein N of SARS-CoV Urbani [2] | Binding of antibody 03-018 to linear peptides of the N protein of SARS-CoV Urbani [4] | Binding of antibody 03-018 to looped/cyclic peptides of the N protein of SARS-CoV Urbani [4] | further results |
| --- | --- | --- | --- | --- | --- | --- | --- | --- | --- | --- | --- | --- | --- | --- | --- | --- | --- | --- | --- | --- | --- |
| FGGPTDSTDNNQNGG | 0.0 | 0.1 | 0.3 | 0.2 | 0.1 | 0.1 | 0.1 | 0.2 | 0.1 | 0.1 | 0.6 | 0.4 | 0.5 | 0.2 | 0.5 | 0.2 | 0.3 | 0.1 | 0.1 | 0.2 | Binding of serum SARS-green to linear peptides of protein N of SARS-CoV Urbani [2]: 0.0; Binding of serum SARS-yellow to linear peptides of protein N of SARS-CoV Urbani [2]: 0.5; Binding of Control Serum Blood-Bank to Looped peptides [3]: 0.4; Binding of Control serum Blood-bank to linear peptides [3]: 0.6; Binding of Control serum LUMC to linear peptides [3]: 0.5; Binding of Control serum LUMC to looped peptides [3]: 0.4 |
| FGRRGPEQTQGNFGD | 0.2 | 0.0 |  | 0.3 |  | 0.1 |  | 0.2 |  | 0.1 |  | 0.4 |  | 0.1 |  | 0.2 | 0.2 | 0.2 | 0.1 | 0.1 | Recognition of the peptide by sera of SARS-CoV infected individuals, and form (linear, looped/cyclic) in which it is recognized [2]: recognized in linear form; Binding of Control Serum Blood-Bank to Looped peptides [3]: 0.4; Binding of Control serum Blood-bank to linear peptides [3]: 0.7; Binding of Control serum LUMC to linear peptides [3]: 0.6; Binding of Control serum LUMC to looped peptides [3]: 0.3 |
| FKDNVILLNKHIDAY | 0.1 | 0.5 | 0.2 | 0.5 | 0.1 | 0.3 | 0.2 | 0.5 | 0.2 | 0.3 | 0.6 | 0.8 | 0.6 | 0.8 | 0.5 | 0.5 | 0.2 | 0.5 | 0.1 | 0.2 | Binding of serum SARS-green to linear peptides of protein N of SARS-CoV Urbani [2]: 0.2; Binding of serum SARS-yellow to linear peptides of protein N of SARS-CoV Urbani [2]: 0.7; Control Serum Blood-Bank Looped peptides [3]: 0.8; Control serum Blood-bank linear peptides [3]: 0.6; Control serum LUMC linear peptides [3]: 0.5; Control serum LUMC looped peptides [3]: 0.8 |
| FPPTEPKKDKKKKTD | 0.1 | 0.1 | 0.2 | 0.2 | 0.1 | 0.1 | 1.3 | 0.2 | 0.2 | 0.1 | 0.6 | 0.4 | 0.7 | 0.2 | 0.6 | 0.2 | 0.0 | 0.1 | 0.1 | 0.2 | Binding of serum SARS-green to linear peptides of protein N of SARS-CoV Urbani [2]: 0.1; Binding of serum SARS-yellow to linear peptides of protein N of SARS-CoV Urbani [2]: 0.6; Control Serum Blood-Bank Looped peptides [3]: 0.4; Control serum Blood-bank linear peptides [3]: 0.6; Control serum LUMC linear peptides [3]: 0.6; Control serum LUMC looped peptides [3]: 0.3 |
